From ChEMBL document CHEMBL2163329, “Tuberculosis: the drug development pipeline at a glance” (Eur J Med Chem, 2012)
In brackets after ≈: the same amount, converted by molar mass.

What was measured:
[1] = Half life in mouse serum at 100 mg/kg; format: ADME, organism-based; design: dose 100 mg/kg
[2] = system: Mycobacterium tuberculosis; assay: Ratio of levofloxacin MIC to compound MIC for Mycobacterium tuberculosis; format: functional
[3] = Cmax in mouse serum at 100 mg/kg; format: ADME, organism-based; design: dose 100 mg/kg
[4] = Half life in mouse lung at 100 mg/kg; format: ADME, organism-based; design: dose 100 mg/kg
[5] = system: Mycobacterium tuberculosis; assay: Ratio of moxifloxacin MIC to compound MIC for Mycobacterium tuberculosis; format: functional
[6] = Cmax in monkey at 5 mg/kg; format: ADME, organism-based, Macaca mulatta; design: dose 5 mg/kg; conditions: rhesus monkey, in vivo
[7] = system: Mycobacterium tuberculosis; assay: Ratio of gatifloxacin MIC to compound MIC for Mycobacterium tuberculosis; format: functional
[8] = system: Mycobacterium tuberculosis; assay: Antimycobacterial activity against Mycobacterium tuberculosis infected in mouse assessed as log reduction of CFU in lung at 100 mg/kg; format: functional
[9] = AUC (0 to 24 hrs) in monkey at 5 mg/kg; format: ADME, organism-based, Macaca mulatta; design: time < 24 hr, dose 5 mg/kg; conditions: rhesus monkey, plasma
[10] = AUC (0 to infinity) in mouse serum at 100 mg/kg; format: ADME, organism-based; design: time infinity, dose 100 mg/kg
[11] = system: Mycobacterium tuberculosis; assay: Antimycobacterial activity against drug-sensitive Mycobacterium tuberculosis; format: functional
[12] = AUC in mouse at 100 mg/kg; format: ADME, organism-based; design: dose 100 mg/kg; conditions: plasma
[13] = system: Mycobacterium tuberculosis; assay: Antimycobacterial activity against Mycobacterium tuberculosis; format: functional
[14] = system: Mycolicibacterium smegmatis; assay: Antimycobacterial activity against Mycobacterium smegmatis; format: functional
[15] = system: Mycobacterium tuberculosis; assay: Antimycobacterial activity against Mycobacterium tuberculosis infected in macrophages assessed as bacterial growth inhibition at 4 ug/mL; format: functional; conditions: read-out: GI
[16] = system: Mycobacterium tuberculosis; assay: Antimycobacterial activity against Mycobacterium tuberculosis infected in human assessed as log reduction of bacterial count at 100 to 400 mg, qd for 14 days; format: functional
[17] = AUC in Mycobacterium tuberculosis infected mouse at 2.5 mg/kg; format: ADME, organism-based; design: dose 2.5 mg/kg; conditions: plasma
[18] = Tmax in Mycobacterium tuberculosis infected mouse at 2.5 mg/kg; format: ADME, organism-based; design: dose 2.5 mg/kg; conditions: in vivo
[19] = Tmax in smear positive tuberculosis patient; format: ADME, organism-based; conditions: human, in vivo
[20] = system: Mycobacterium tuberculosis; assay: Antimycobacterial activity against Mycobacterium tuberculosis clinical isolate; format: functional
[21] = Cmax in human at 400 mg, po; format: ADME, organism-based; design: dose 400 mg, route oral; conditions: in vivo
[22] = system: Mycobacterium tuberculosis; assay: Antimycobacterial activity against Mycobacterium tuberculosis infected in human assessed as log reduction of bacterial count at 400 mg, qd measured up to 7 days; format: functional
[23] = AUC at steady state (0 to 24 hrs) in human at 50 mg, po qd for 14 days; format: ADME, organism-based; design: dose 50 mg, time < 24 hr, route oral; conditions: plasma
[24] = AUC at steady state (0 to 24 hrs) in human at 400 mg, po qd for 14 days; format: ADME, organism-based; design: dose 400 mg, time < 24 hr, route oral; conditions: plasma
[25] = system: Mycobacterium tuberculosis; assay: Antimycobacterial activity against Mycobacterium tuberculosis H37Rv; format: functional
[26] = AUC at steady state (0 to 24 hrs) in human at 150 mg, po qd for 14 days; format: ADME, organism-based; design: dose 150 mg, time < 24 hr, route oral; conditions: plasma
[27] = Cmax in human at 10 mg, po; format: ADME, organism-based; design: dose 10 mg, route oral; conditions: in vivo
[28] = Cmax in Mycobacterium tuberculosis H37Rv infected BALB/c mouse at 37.5 to 300 mg/kg, po administered 6 times per week for 4 weeks; format: ADME, organism-based; design: dose 37.5-300 mg/kg, route oral; conditions: in vivo
[29] = system: Mycobacterium tuberculosis; assay: Antimycobacterial activity against Mycobacterium tuberculosis H37Rv infected in BALB/c mouse assessed as log reduction of CFU in lung at 300 mg/kg, po administered 6 times per week for 4 weeks; format: functional
[30] = system: Mycobacterium tuberculosis; assay: Antimycobacterial activity against Mycobacterium tuberculosis H37Rv infected in BALB/c mouse assessed as log reduction of CFU in spleen at 300 mg/kg, po administered 6 times per week for 4 weeks; format: functional
[31] = AUC in Mycobacterium tuberculosis H37Rv infected BALB/c mouse at 37.5 to 300 mg/kg, po administered 6 times per week for 4 weeks; format: ADME, organism-based; design: dose 37.5-300 mg/kg, route oral; conditions: plasma
[32] = system: Mycobacterium tuberculosis; assay: Antimycobacterial activity against Mycobacterium tuberculosis infected in human assessed as log reduction of bacterial count at 400 mg, qd measured up to 2 days; format: functional
[33] = AUC in human at 400 mg, po; format: ADME, organism-based; conditions: plasma
[34] = Half life in human at 400 mg, po; format: ADME, organism-based; conditions: in vivo
[35] = (§1) Tmax in human at 400 mg, po; format: ADME, organism-based; conditions: in vivo, 400 mg
[36] = system: Mycobacterium tuberculosis; assay: Antimycobacterial activity against Mycobacterium tuberculosis infected in human assessed as log reduction of bacterial count at 300 mg, qd measured up to 2 days; format: functional
[37] = Bioavailability in human; format: ADME, organism-based; conditions: in vivo
Homo sapiens = assay: as §1; format: ADME, organism-based; conditions: in vivo
[38] = Bioavailability in human at 1200 mg; format: ADME, organism-based; conditions: in vivo
[39] = Bioavailability in human at 50 mg; format: ADME, organism-based; conditions: in vivo
[40] = Cmax in human at 50 to 1500 mg, po; format: ADME, organism-based; conditions: in vivo
[41] = AUC in human at 50 to 1500 mg, po; format: ADME, organism-based; conditions: plasma
[42] = Tmax in human at 50 to 1500 mg, po; format: ADME, organism-based; conditions: in vivo
[43] = system: Mycobacterium tuberculosis; assay: Antimycobacterial activity against Mycobacterium tuberculosis infected in mouse administered as qd; format: functional
[44] = system: Mycobacterium tuberculosis; assay: Antimycobacterial activity against Mycobacterium tuberculosis infected in human assessed as log reduction of bacterial count at 200 to 1200 mg; format: functional
[45] = system: Mycobacterium tuberculosis; assay: Antimycobacterial activity against Mycobacterium tuberculosis infected in mouse assessed as log reduction of CFU in spleen at 10 to 25 mg/kg after 30 days; format: functional; conditions: dose mg/kg 10-25
[46] = Half life in human up to 300 mg, po; format: ADME, organism-based; conditions: in vivo
[47] = system: Mycobacterium tuberculosis; assay: Antimycobacterial activity against Mycobacterium tuberculosis infected in mouse assessed as log reduction of CFU in lung at 10 to 25 mg/kg after 30 days; format: functional; conditions: dose mg/kg 10-25
[48] = Oral bioavailability in mouse at 10 mg/kg; format: ADME, organism-based; conditions: in vivo

COc1c(N2CC3(CC3)[C@](C)(N)C2)c(F)cc2c(=O)c(C(=O)O)cn([C@@H]3C[C@@H]3F)c12
half-life [1]: 1.51 h | Ratio [2]: 4 | Cmax [3]: 10300 ng/mL | half-life [4]: 1.93 h | Ratio [5]: 4 | Cmax [6]: 2200 ng/mL | Ratio [7]: 4 | log10cfu [8]: 2 | AUC(0-t) at 24 h [9]: 16900 ng·h/mL | AUC(0-inf) [10]: 14700 ng·h/mL | MIC90 [11]: 0.06 µg/mL (≈ 0.143 µM)

N#CCC(=O)N1CCC(c2nc(-c3cccs3)no2)CC1
AUC [12]: 82000 ng·h/mL

C[C@@H]1COC2(CCN(c3nc(=O)c4cc(C(F)(F)F)cc([N+](=O)[O-])c4s3)CC2)O1
MIC [13]: 0.001 µg/mL (≈ 0.00232 µM) | MIC [14]: 0.004 µg/mL (≈ 0.00927 µM)

OC1CCN(C2CCN(CC34CC5CC(CC(C5)C3)C4)CC2)CC1
inhibition of growth at 4 µg/mL [15]: 90%

C[C@]1(COc2ccc(N3CCC(Oc4ccc(OC(F)(F)F)cc4)CC3)cc2)Cn2cc([N+](=O)[O-])nc2O1
log10CFU/ml/day [16]: 0.04 | AUC [17]: 4130 ng·h/mL | Tmax [18]: 6 h | Tmax [19]: 4 h | MIC [11]: 0.006 µg/mL

CC(=O)NC[C@H]1CN(c2ccc([S+](C)[O-])cc2)C(=O)O1 (stereo not given in full)
MIC [13]: 0.3 µg/mL (≈ 1.01 µM)

COc1nc2ccc(Br)cc2cc1[C@@H](c1ccccc1)[C@@](O)(CCN(C)C)c1cccc2ccccc12 [BEDAQUILINE]
MIC [20]: 0.03 µg/mL (≈ 0.054 µM) | Cmax [21]: 9000 ng/mL | log10CFU/ml [22]: 0.77 | AUC at 24 h [23]: 7900 ng·h/mL | AUC at 24 h [24]: 52000 ng·h/mL | MIC99 [25]: 0.03 µg/mL (≈ 0.054 µM) | AUC at 24 h [26]: 24000 ng·h/mL | Cmax [27]: 70 ng/mL | MIC [11]: 0.003 µg/mL

C[C@H]1COC2(CCN(c3nc(=O)c4cc(C(F)(F)F)cc([N+](=O)[O-])c4s3)CC2)O1 [BTZ-043]
Cmax [28]: 2000 ng/mL | MIC [13]: 0.001 µg/mL (≈ 0.00232 µM) | MIC [14]: 0.004 µg/mL (≈ 0.00927 µM) | log10cfu [29]: 1 | log10cfu [30]: 2 | AUC at 672 h [31]: 4600 ng·h/mL

CC(=O)NC[C@H]1CN(c2ccc(C(C)=O)cc2)C(=O)O1 [DUP-721]
MIC [13]: 0.3 µg/mL (≈ 1.09 µM)

COc1c(N2CCNC(C)C2)c(F)cc2c(=O)c(C(=O)O)cn(C3CC3)c12 (stereo not given) [GATIFLOXACIN]
log10CFU/ml/day [32]: 0.35 | AUC [33]: 30000 ng·h/mL | MIC90 [20]: 0.007 µg/mL (≈ 0.0186 µM) | Cmax [21]: 3400 ng/mL | half-life [34]: 6.5 h | MIC [25]: 0.12 µg/mL (≈ 0.32 µM) | Tmax [35]: 1.5 h

NNC(=O)c1ccncc1 [ISONIAZID]
log10CFU/ml/day [36]: 0.67 | log10CFU/ml [22]: 1.88

CC(=O)NC[C@H]1CN(c2ccc(N3CCOCC3)c(F)c2)C(=O)O1 [LINEZOLID]
MIC [13]: 0.125 µg/mL (≈ 0.371 µM)

COc1c(N2C[C@@H]3CCCN[C@@H]3C2)c(F)cc2c(=O)c(C(=O)O)cn(C3CC3)c12 [MOXIFLOXACIN]
log10CFU/ml/day [32]: 0.33 | bioavailability [37]: 90% | AUC [33]: 39000 ng·h/mL | Cmax [21]: 4300 ng/mL | MIC [25]: 0.18 µg/mL (≈ 0.448 µM) | Tmax (Homo sapiens): 1 h

O=C([C@@H](O)CO)N1CC=C(c2c(F)cc(N3C[C@H](COc4ccon4)OC3=O)cc2F)CC1 [POSIZOLID]
bioavailability [38]: < 30% | bioavailability [39]: 100%

O=[N+]([O-])c1cn2c(n1)OC[C@@H](OCc1ccc(OC(F)(F)F)cc1)C2 [PRETOMANID]
Cmax [40]: 300 ng/mL | AUC [41]: 7500 ng·h/mL | Tmax [42]: 4 h | MBC [43]: 100 mg/kg | minimal effective dose ([43]; Mycobacterium tuberculosis, read-out: MED): 12.5 mg/kg | MIC [25]: 0.039 µg/mL (≈ 0.109 µM) | log10CFU/ml/day [44]: 0.1 | MIC [11]: 0.06 µg/mL

CO[C@H]1/C=C/O[C@@]2(C)Oc3c(C)c(O)c4c(O)c(c(/C=N/N5CCN(C)CC5)c(O)c4c3C2=O)NC(=O)/C(C)=C\C=C\[C@H](C)[C@H](O)[C@@H](C)[C@@H](O)[C@@H](C)[C@H](OC(C)=O)[C@@H]1C [RIFAMPIN]
log10CFU/ml [22]: 1.7

CC(C)=CCC/C(C)=C/CNCCNC1C2CC3CC(C2)CC1C3 (stereo not given) [SQ109]
log10cfu [45]: 1.5 | half-life [46]: 61 h | log10cfu [47]: 1.5 | bioavailability [48]: 8% | MIC [11]: 0.63 µM

CC(=O)NC[C@H]1CN(c2ccc(N3CCSCC3)c(F)c2)C(=O)O1 [SUTEZOLID]
MIC [11]: 0.03 µg/mL
